# According to publication PMC4120060 (Psychoneuroendocrinology, 2014):
# Key:
# [1] = in vivo; cited from earlier work
# [2] = in vivo; cited from earlier work; remark: listed apart in the source
# [3] = humans; four-fold lower intramuscular dose; ref Landgraf, 1985; cited from earlier work
# [4] = Lumbar CSF OT concentration after OT administration; conditions: N=6
# [5] = ref Mens et al., 1983; cited from earlier work
# [6] = Plasma OT concentration after OT administration; type: in vivo, rhesus monkeys (Macaca mulatta)
"lumbar CSF OT after IV-OT ([4]; IV 48 IU Syntocinon vs placebo, 0, 60, 120 min)","lumbar CSF OT after IN-OT ([4]; intranasal spray 24 IU Syntocinon vs placebo, 0, 60, 120 min)","increase in plasma OT after IV-OT, 15 min ([6]; IV bolus 48 IU Syntocinon, 15 min after administration, N=6, RIA)","increase in plasma OT after IV-OT, 60 min ([6]; IV bolus 48 IU Syntocinon, 60 min after administration, N=6, RIA)","plasma OT above baseline after IV-OT, 120 min ([6]; IV bolus 48 IU Syntocinon, 120 min after administration, N=6, RIA)","increase in plasma OT over baseline after IN-OT ([6]; intranasal spray 24 IU Syntocinon, 60 and 120 min, N=6, RIA)",Molecule,CSF OT concentrations after IN-OT spray versus placebo/saline [1],passive diffusion of peptide from the plasma to the CSF [2],"plasma OT concentration, intramuscular relative to nasal administration [3]",half-life of OT in the blood [5],"plasma OT after IN-OT versus placebo ([6]; intranasal spray 24 IU Syntocinon vs placebo, 60 and 120 min, N=6)",CSF concentration of the peptide after nasal delivery [1]
no impact on lumbar CSF concentrations,No significant effect,thousand fold increase,hundred fold increase,100 times,100 fold,"CC[C@H](C)[C@@H]1NC(=O)[C@H](Cc2ccc(O)cc2)NC(=O)[C@@H](N)CSSC[C@@H](C(=O)N2CCC[C@H]2C(=O)N[C@@H](CC(C)C)C(=O)NCC(N)=O)NC(=O)[C@H](CC(N)=O)NC(=O)[C@H](CCC(N)=O)NC1=O [OT, oxytocin]",higher,~ 1%,10 fold,approximately 2 minutes,significantly increased plasma levels of OT,–
–,–,–,–,–,–,α-melanocyte stimulating hormone,–,–,–,–,–,increased concentrations in cerebrospinal fluid (CSF) over baseline levels
